Experimental data taken from patent US9468213B2, “Herbicide formulation” (Syngenta Crop Protection LLC, priority 2008, dated 2016).

Key:
[1] = Stability of mesotrione in chloroacetamides (Example 6, FIG. 1 and FIG. 2); format: physicochemical; details: in chloroacetamides (S-MOC=S-metolachlor)
Method: Experiments were conducted to look at the stability of mesotrione in chloroacetamides.

[2] = Comparative HPPD stability: decomposition of mesotrione in the formulation acidified by various acids; format: physicochemical
Method: The final formulation is prepared by 134.4 grams of the S-metolachlor CS with 22.9 grams of water and under agitation adding 15.2 grams of the mesotrione millbase. This is followed by the addition of 152.7 grams of the Potassium Glyphosate concentrate and then 17.5 grams of the Rhodopol 23 pregel of the previous example. […]

CS(=O)(=O)c1ccc(C(=O)C2C(=O)CCCC2=O)c([N+](=O)[O-])c1 [Mesotrione, 2-(2′-nitro-4′-methylsulphonylbenzoyl)-1,3-cyclohexanedione]
stability of mesotrione in chloroacetamides [1]: lack of stability
Percentage Decomposition of Mesotrione ([2]; Gluconic acid, 38 C., 1 MONTH): 4.30%
Percentage Decomposition of Mesotrione ([2]; Gluconic acid, 38 C., 1 WEEK): 1.59%
Percentage Decomposition of Mesotrione ([2]; Gluconic acid, 38 C., 2 MONTHS): 7.42%
Percentage Decomposition of Mesotrione ([2]; Gluconic acid, 38 C., 2 WEEKS): 1.77%
Percentage Decomposition of Mesotrione ([2]; Gluconic acid, 38 C., 3 MONTHS): 11.23%
Percentage Decomposition of Mesotrione ([2]; Gluconic acid, 38 C., 3 WEEKS): 3.00%
Percentage Decomposition of Mesotrione ([2]; Gluconic acid, 45 C., 1 MONTH): 10.22%
Percentage Decomposition of Mesotrione ([2]; Gluconic acid, 45 C., 1 WEEK): 1.75%
Percentage Decomposition of Mesotrione ([2]; Gluconic acid, 45 C., 2 MONTHS): 23.39%
Percentage Decomposition of Mesotrione ([2]; Gluconic acid, 45 C., 2 WEEKS): 4.91%
Percentage Decomposition of Mesotrione ([2]; Gluconic acid, 45 C., 3 MONTHS): 35.81%
Percentage Decomposition of Mesotrione ([2]; Gluconic acid, 45 C., 3 WEEKS): 6.77%
Percentage Decomposition of Mesotrione ([2]; Gluconic acid, 50 C., 1 MONTH): 26.24%
Percentage Decomposition of Mesotrione ([2]; Gluconic acid, 50 C., 1 WEEK): 5.91%
Percentage Decomposition of Mesotrione ([2]; Gluconic acid, 50 C., 2 MONTHS): 54.80%
Percentage Decomposition of Mesotrione ([2]; Gluconic acid, 50 C., 2 WEEKS): 11.61%
Percentage Decomposition of Mesotrione ([2]; Gluconic acid, 50 C., 3 DAYS): 3.26%
Percentage Decomposition of Mesotrione ([2]; Gluconic acid, 50 C., 3 MONTHS): 73.08%
Percentage Decomposition of Mesotrione ([2]; Gluconic acid, 50 C., 3 WEEKS): 17.40%
Percentage Decomposition of Mesotrione ([2]; Gluconic acid, −18 C., 6 MONTHS): −0.18%
Percentage Decomposition of Mesotrione ([2]; No acid, 38 C., 1 MONTH): 17.27%
Percentage Decomposition of Mesotrione ([2]; No acid, 38 C., 1 WEEK): 4.63%
Percentage Decomposition of Mesotrione ([2]; No acid, 38 C., 2 MONTHS): 25.52%
Percentage Decomposition of Mesotrione ([2]; No acid, 38 C., 2 WEEKS): 9.97%
Percentage Decomposition of Mesotrione ([2]; No acid, 38 C., 3 MONTHS): 31.02%
Percentage Decomposition of Mesotrione ([2]; No acid, 38 C., 3 WEEKS): 13.05%
Percentage Decomposition of Mesotrione ([2]; No acid, 45 C., 1 MONTH): 32.01%
Percentage Decomposition of Mesotrione ([2]; No acid, 45 C., 1 WEEK): 11.97%
Percentage Decomposition of Mesotrione ([2]; No acid, 45 C., 2 MONTHS): 49.76%
Percentage Decomposition of Mesotrione ([2]; No acid, 45 C., 2 WEEKS): 19.71%
Percentage Decomposition of Mesotrione ([2]; No acid, 45 C., 3 MONTHS): 62.57%
Percentage Decomposition of Mesotrione ([2]; No acid, 45 C., 3 WEEKS): 25.71%
Percentage Decomposition of Mesotrione ([2]; No acid, 50 C., 1 MONTH): 53.82%
Percentage Decomposition of Mesotrione ([2]; No acid, 50 C., 1 WEEK): 20.39%
Percentage Decomposition of Mesotrione ([2]; No acid, 50 C., 2 MONTHS): 77.94%
Percentage Decomposition of Mesotrione ([2]; No acid, 50 C., 2 WEEKS): 35.25%
Percentage Decomposition of Mesotrione ([2]; No acid, 50 C., 3 DAYS): 11.30%
Percentage Decomposition of Mesotrione ([2]; No acid, 50 C., 3 MONTHS): 88.38%
Percentage Decomposition of Mesotrione ([2]; No acid, 50 C., 3 WEEKS): 46.31%
Percentage Decomposition of Mesotrione ([2]; No acid, −18 C., 6 MONTHS): 1.07%
Percentage Decomposition of Mesotrione ([2]; Phosphoric acid, 38 C., 1 MONTH): 3.48%
Percentage Decomposition of Mesotrione ([2]; Phosphoric acid, 38 C., 1 WEEK): 1.30%
Percentage Decomposition of Mesotrione ([2]; Phosphoric acid, 38 C., 2 MONTHS): 5.08%
Percentage Decomposition of Mesotrione ([2]; Phosphoric acid, 38 C., 2 WEEKS): 1.09%
Percentage Decomposition of Mesotrione ([2]; Phosphoric acid, 38 C., 3 MONTHS): 7.65%
Percentage Decomposition of Mesotrione ([2]; Phosphoric acid, 38 C., 3 WEEKS): 1.40%
Percentage Decomposition of Mesotrione ([2]; Phosphoric acid, 45 C., 1 MONTH): 7.12%
Percentage Decomposition of Mesotrione ([2]; Phosphoric acid, 45 C., 1 WEEK): 1.87%
Percentage Decomposition of Mesotrione ([2]; Phosphoric acid, 45 C., 2 MONTHS): 14.59%
Percentage Decomposition of Mesotrione ([2]; Phosphoric acid, 45 C., 2 WEEKS): 2.43%
Percentage Decomposition of Mesotrione ([2]; Phosphoric acid, 45 C., 3 MONTHS): 23.48%
Percentage Decomposition of Mesotrione ([2]; Phosphoric acid, 45 C., 3 WEEKS): 3.13%
Percentage Decomposition of Mesotrione ([2]; Phosphoric acid, 50 C., 1 MONTH): 16.79%
Percentage Decomposition of Mesotrione ([2]; Phosphoric acid, 50 C., 1 WEEK): 2.93%
Percentage Decomposition of Mesotrione ([2]; Phosphoric acid, 50 C., 2 MONTHS): 36.38%
Percentage Decomposition of Mesotrione ([2]; Phosphoric acid, 50 C., 2 WEEKS): 7.09%
Percentage Decomposition of Mesotrione ([2]; Phosphoric acid, 50 C., 3 DAYS): 1.77%
Percentage Decomposition of Mesotrione ([2]; Phosphoric acid, 50 C., 3 MONTHS): 58.11%
Percentage Decomposition of Mesotrione ([2]; Phosphoric acid, 50 C., 3 WEEKS): 10.85%
Percentage Decomposition of Mesotrione ([2]; Phosphoric acid, −18 C., 6 MONTHS): 0.94%
Percentage Decomposition of Mesotrione ([2]; Toluene-sulfonic acid, 38 C., 1 MONTH): 2.81%
Percentage Decomposition of Mesotrione ([2]; Toluene-sulfonic acid, 38 C., 1 WEEK): 0.75%
Percentage Decomposition of Mesotrione ([2]; Toluene-sulfonic acid, 38 C., 2 MONTHS): 4.00%
Percentage Decomposition of Mesotrione ([2]; Toluene-sulfonic acid, 38 C., 2 WEEKS): 0.78%
Percentage Decomposition of Mesotrione ([2]; Toluene-sulfonic acid, 38 C., 3 MONTHS): 2.14%
Percentage Decomposition of Mesotrione ([2]; Toluene-sulfonic acid, 38 C., 3 WEEKS): 1.74%
Percentage Decomposition of Mesotrione ([2]; Toluene-sulfonic acid, 45 C., 1 MONTH): 5.85%
Percentage Decomposition of Mesotrione ([2]; Toluene-sulfonic acid, 45 C., 1 WEEK): 1.64%
Percentage Decomposition of Mesotrione ([2]; Toluene-sulfonic acid, 45 C., 2 MONTHS): 11.08%
Percentage Decomposition of Mesotrione ([2]; Toluene-sulfonic acid, 45 C., 2 WEEKS): 3.06%
Percentage Decomposition of Mesotrione ([2]; Toluene-sulfonic acid, 45 C., 3 MONTHS): 18.29%
Percentage Decomposition of Mesotrione ([2]; Toluene-sulfonic acid, 45 C., 3 WEEKS): 4.12%
Percentage Decomposition of Mesotrione ([2]; Toluene-sulfonic acid, 50 C., 1 MONTH): 13.91%
Percentage Decomposition of Mesotrione ([2]; Toluene-sulfonic acid, 50 C., 1 WEEK): 2.32%
Percentage Decomposition of Mesotrione ([2]; Toluene-sulfonic acid, 50 C., 2 MONTHS): 28.00%
Percentage Decomposition of Mesotrione ([2]; Toluene-sulfonic acid, 50 C., 2 WEEKS): 5.94%
Percentage Decomposition of Mesotrione ([2]; Toluene-sulfonic acid, 50 C., 3 DAYS): 2.11%
Percentage Decomposition of Mesotrione ([2]; Toluene-sulfonic acid, 50 C., 3 MONTHS): 44.55%
Percentage Decomposition of Mesotrione ([2]; Toluene-sulfonic acid, 50 C., 3 WEEKS): 9.69%
Percentage Decomposition of Mesotrione ([2]; Toluene-sulfonic acid, −18 C., 6 MONTHS): 0.05%
